According to patent US9096646B2, “CXCR4 receptor compounds” (priority 2008, dated 2015):
Where “and” joins values, the source holds several entries; their conditions need not be identical. Equal values may be shown once. Read-outs that look alike come from different tables or passages of the source. Square brackets hold non-standard residues; d marks the D form. Peptide text beside a SMILES is read from it. * marks the point of attachment. ξ: configuration not given here. ξGly(nC16H33) = CCCCCCCCCCCCCCCCC(N)C(=O)O; Palmitoyl = CCCCCCCCCCCCCCCC(=O)*; Myristoyl = CCCCCCCCCCCCCC(=O)*

Target: CXCR4 (Homo sapiens, UniProt P61073)
Sequence (P61073 whole entry): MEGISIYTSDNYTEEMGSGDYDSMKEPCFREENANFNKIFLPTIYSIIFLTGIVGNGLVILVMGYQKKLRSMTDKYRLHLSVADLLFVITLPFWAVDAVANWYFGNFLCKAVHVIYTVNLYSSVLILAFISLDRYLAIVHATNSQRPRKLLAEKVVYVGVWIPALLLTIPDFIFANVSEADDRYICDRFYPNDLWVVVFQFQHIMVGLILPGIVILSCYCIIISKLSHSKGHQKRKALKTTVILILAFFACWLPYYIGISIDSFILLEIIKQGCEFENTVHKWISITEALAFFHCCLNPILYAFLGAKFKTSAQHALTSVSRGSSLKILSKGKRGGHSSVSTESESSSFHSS
Assay: Chemotaxis assay, effect on SDF1-a (CXCL12) induced migration of CCRF-CEM cells
Type: cell-based
Parameters: a human T-cell ALL line that endogenously expresses CXCR4; endogenous in cells; host or cells: CCRF-CEM (human T-cell ALL line)
Conditions: for activity at 0.01 µM / activity at 0.03 µM / activity at 0.1 µM / activity at 0.3 µM / activity at 3 µM / activity at 1 µM: CCRF-CEM; for activity at 0.01 µM / activity at 0.03 µM / activity at 0.1 µM / activity at 0.3 µM / activity at 3 µM / Peak Test Compound / Peak Ratio / AUC (% of vehicle) / Max (% of vehicle) / activity at 1 µM / Peak Test Comp.: CEM cells
[1] = Table 20, i3 loop, conc 0.01 uM
[2] = Table 20, i3 loop, conc 0.03 uM
[3] = Table 20, i3 loop, conc 1.0 uM, peak test compound/peak control
[4] = Table 18, i1 loop, drug conc 1.0 uM, read-out: AUC (% of)
[5] = Table 18, i1 loop, drug conc 1.0 uM, read-out: Max (% of)

Description: Chemotaxis assays were utilized to determine the effect of compound on the directed migration of cells in response to chemokine. Cells that express a receptor of interest were placed in the upper chamber of a Transwell chemotaxis plate (Corning) and allowed to migrate through a polycarbonate membrane to a lower chamber containing the appropriate receptor-specific ligand. To test for antagonist or potentiating activity, cells were mixed with the desired concentration of compound prior to addition to the upper chamber. Conversely, agonist activity was determined by adding compound in the bottom chamber only without endogenous chemokine. The effect of compound is quantified by several parameters, including the extent of maximum response, the shift of agonist dose-response curves, and the area under the curve.
To measure the CXCR4-dependent migration of cells, the appropriate concentration of CXCL12 (SDF1a) or test compound was diluted in phenol red-free RMPI-1640/20 mM HEPES/0.5% BSA buffer and placed in the bottom chamber of a transwell apparatus. CCRF-CEM cells, a human T-cell ALL line that endogenously expresses CXCR4, were washed twice in buffer and resuspended at 133,000 cells/ml. A 75 μl sample of this suspension is mixed with the test compound of interest and placed in the upper chamber of a 5-micron transwell apparatus.
To initiate cell migration, the assembled transwell plate was placed in a 37° C., 0.5% CO2 incubator for a specified time interval, typically between 30 and 120 minutes. After incubation, the unit was disassembled and the lower chamber placed at −80° C. overnight to facilitate lysis of cells. To quantify migrated cells, plates were thawed at 37° C. in a humidified chamber, and then a sample volume was removed from each well and mixed with an equal volume of CyQuant (Invitrogen) working solution in opaque plates. The fluorescence intensity of each well represents the DNA content and is directly proportional to cell number. […] The plate background control, which included no cells in the upper chamber, was subtracted from all values.

Compound: CCCCCCCCCCCCCCCC(=O)N[C@@H](CCCCN)C(=O)N[C@@H](CC(C)C)C(=O)N[C@@H](CO)C(=O)N[C@@H](Cc1cnc[nH]1)C(=O)N[C@@H](CO)C(=O)N[C@@H](CCCCN)C(=O)NCC(=O)N[C@@H](Cc1cnc[nH]1)C(=O)N[C@@H](CCC(N)=O)C(=O)N[C@@H](CCCCN)C(=O)N[C@@H](CCCNC(=N)N)C(=O)N[C@@H](CCCCN)C(=O)N[C@@H](C)C(=O)N[C@@H](CC(C)C)C(=O)N[C@@H](CCCCN)C(N)=O [Compound 92] (Palmitoyl-KLSHSKGHQKRKALK-NH2)
- activity at 0.01 µM (Table 20, i3 loop, conc 0.01 uM, read-out: AUC (% of vehicle)): 158%
- activity at 0.01 µM (Table 20, i3 loop, conc 0.01 uM, read-out: Max (% of vehicle)): 156%
- activity at 0.03 µM (Table 20, i3 loop, conc 0.03 uM, read-out: AUC (% of vehicle)): 200%
- activity at 0.03 µM (Table 20, i3 loop, conc 0.03 uM, read-out: Max (% of vehicle)): 198%
- activity at 0.1 µM (Table 20, i3 loop, conc 0.1 uM, read-out: AUC (% of vehicle)): 174%
- activity at 0.1 µM (Table 20, i3 loop, conc 0.1 uM, read-out: Max (% of vehicle)): 169%
- activity at 0.3 µM (Table 20, i3 loop, conc 0.3 uM, read-out: AUC (% of vehicle)): 180%
- activity at 0.3 µM (Table 20, i3 loop, conc 0.3 uM, read-out: Max (% of vehicle)): 165%
- activity at 3 µM (Table 20, i3 loop, conc 3.0 uM, read-out: AUC (% of vehicle)): 184%
- activity at 3 µM (Table 20, i3 loop, conc 3.0 uM, read-out: Max (% of vehicle)): 176%
- Peak Test Compound [1]: 0.16 nM
- Peak Ratio (Table 20, i3 loop, conc 0.01 uM, peak test compound/peak control): 0.2
- Peak Test Compound [2]: 0.16 nM
- Peak Ratio (Table 20, i3 loop, conc 0.03 uM, peak test compound/peak control): 0.2
- Peak Test Compound (Table 20, i3 loop, conc 0.1 uM): 0.16 nM
- Peak Ratio (Table 20, i3 loop, conc 0.1 uM, peak test compound/peak control): 0.2
- Peak Test Compound (Table 20, i3 loop, conc 0.3 uM): 0.16 nM
- Peak Ratio (Table 20, i3 loop, conc 0.3 uM, peak test compound/peak control): 0.2
- Peak Test Compound (Table 20, i3 loop, conc 1.0 uM): 0.2 nM and 0.16 nM
- Peak Ratio [3]: 0.2
- Peak Test Compound (Table 20, i3 loop, conc 3.0 uM): 0.8 nM
- Peak Ratio (Table 20, i3 loop, conc 3.0 uM, peak test compound/peak control): 1

Compound: 114: CXCR4 i4 domain compound (GAKFKTSAQHALTSVSRGSSLKILSK) [Compound 114]
- AUC (% of vehicle) (Table 21, i4 loop, conc 1.0 uM): 34.22 % of Vehicle
- Max (% of vehicle) (Table 21, i4 loop, conc 1.0 uM): 63.12 % of Vehicle

Compound: 101: CXCR4 i3 loop compound (SKLSHSKGHQKRKALK) [Compound 101]
- AUC (% of vehicle) (Table 20, i3 loop, conc 1.0 uM): 75.55 % of vehicle
- Max (% of vehicle) (Table 20, i3 loop, conc 1.0 uM): 74.92 % of vehicle

Compound: 115: CXCR4 i4 domain compound (GAKFKTSAQHALTSVSRGSSLK) [Compound 115]
- AUC (% of vehicle) (Table 21, i4 loop, conc 1.0 uM): 77.47 % of Vehicle
- Max (% of vehicle) (Table 21, i4 loop, conc 1.0 uM): 92.11 % of Vehicle

Compound: CCCCCCCCCCCCCCCC(=O)N[C@@H](CO)C(=O)NCC(=O)N[C@@H](Cc1ccc(O)cc1)C(=O)N[C@@H](CCC(N)=O)C(=O)N[C@@H](CCCCN)C(=O)N[C@@H](CCCCN)C(=O)N[C@@H](CC(C)C)C(=O)N[C@@H](CCCNC(=N)N)C(=O)N[C@@H](CO)C(=O)N[C@@H](CO)C(=O)N[C@H](C(=O)N[C@@H](CC(=O)O)C(N)=O)[C@@H](C)O [Compound 69] (Palmitoyl-SGYQKKLRSSTD-NH2)
- activity at 1 µM [4]: 100%
- activity at 1 µM [5]: 93.1%
- Peak Test Comp. (Table 18, i1 loop, drug conc 1.0 uM): 25 nM
- Peak Ratio (Table 18, i1 loop, drug conc 1.0 uM, peak test comp./peak control): 1

Compound: 103: CXCR4 i3 loop compound (IIISKLSHSKGHQKRKALKT) [Compound 103]
- AUC (% of vehicle) (Table 20, i3 loop, conc 1.0 uM): 26.32 % of vehicle
- Max (% of vehicle) (Table 20, i3 loop, conc 1.0 uM): 24.45 % of vehicle

Compound: 109: CXCR4 i4 domain compound (GAKFKTSAQHALTSVSRGSSLKILSKGKRGGHSSVST) [Compound 109]
- AUC (% of vehicle) (Table 21, i4 loop, conc 1.0 uM): 49.31 % of Vehicle
- Max (% of vehicle) (Table 21, i4 loop, conc 1.0 uM): 49.84 % of Vehicle
- Peak Test Comp. (Table 21, i4 loop, conc 1.0 uM): 0.2 nM

Compound: CCCCCCCCCCCCCCCC(=O)N[C@@H](Cc1cnc[nH]1)C(=O)N[C@@H](CO)C(=O)N[C@@H](CCCCN)C(=O)NCC(=O)N[C@@H](Cc1cnc[nH]1)C(=O)N[C@@H](CCC(N)=O)C(=O)N[C@@H](CCCCN)C(=O)N[C@@H](CCCNC(=N)N)C(=O)N[C@@H](CCCCN)C(=O)N[C@@H](C)C(=O)N[C@@H](CC(C)C)C(=O)N[C@@H](CCCCN)C(=O)N[C@H](C(=O)N[C@H](C(=O)N[C@H](C(=O)N[C@H](C(N)=O)[C@@H](C)CC)C(C)C)[C@@H](C)O)[C@@H](C)O [Compound 100] (Palmitoyl-HSKGHQKRKALKTTVI-NH2)
- activity at 1 µM (Table 20, i3 loop, conc 1.0 uM, read-out: AUC (% of vehicle)): 49.3%
- activity at 1 µM (Table 20, i3 loop, conc 1.0 uM, read-out: Max (% of vehicle)): 49.8%
- Peak Test Compound (Table 20, i3 loop, conc 1.0 uM): 0.2 nM
- Peak Ratio [3]: 0.04

Compound: Pal-SKLSHSKGHQKRKALKTTVIL-amide (Palmitoyl-SKLSHSKGHQKRKALKTTVIL-NH2; SMILES CCCCCCCCCCCCCCCC(=O)N[C@@H](CO)C(=O)N[C@@H](CCCCN)C(=O)N[C@@H](CC(C)C)C(=O)N[C@@H](CO)C(=O)N[C@@H](Cc1c[nH]cn1)C(=O)N[C@@H](CO)C(=O)N[C@@H](CCCCN)C(=O)NCC(=O)N[C@@H](Cc1c[nH]cn1)C(=O)N[C@@H](CCC(N)=O)C(=O)N[C@@H](CCCCN)C(=O)N[C@@H](CCCNC(=N)N)C(=O)N[C@@H](CCCCN)C(=O)N[C@@H](C)C(=O)N[C@@H](CC(C)C)C(=O)N[C@@H](CCCCN)C(=O)N[C@H](C(=O)N[C@H](C(=O)N[C@H](C(=O)N[C@H](C(=O)N[C@@H](CC(C)C)C(N)=O)[C@@H](C)CC)C(C)C)[C@@H](C)O)[C@@H](C)O) [Compound 88]
- positive allosteric modulation of the SDF1-a dependent chemotactic response (RFU) (30 nM of compound): induces a positive SDF1-a mediated chemotactic response
- AUC (% of vehicle) [1]: 172.33 % of vehicle
- Max (% of vehicle) [1]: 156.08 % of vehicle
- Peak Test Compound [1]: 0.03 nM
- AUC (% of vehicle) [2]: 226.59 % of vehicle
- Max (% of vehicle) [2]: 202.16 % of vehicle
- Peak Test Compound [2]: 0.03 nM
- AUC (% of vehicle) (Table 20, i3 loop, conc 0.1 uM): 183.19 % of vehicle
- Max (% of vehicle) (Table 20, i3 loop, conc 0.1 uM): 157.79 % of vehicle
- Peak Test Compound (Table 20, i3 loop, conc 0.1 uM): 0.03 nM
- AUC (% of vehicle) (Table 20, i3 loop, conc 0.3 uM): 131.2 % of vehicle
- Max (% of vehicle) (Table 20, i3 loop, conc 0.3 uM): 113.68 % of vehicle
- AUC (% of vehicle) (Table 20, i3 loop, conc 1.0 uM): 143.61 % of vehicle
- Max (% of vehicle) (Table 20, i3 loop, conc 1.0 uM): 131.59 % of vehicle
- Peak Test Compound (Table 20, i3 loop, conc 1.0 uM): 0.8 nM
- AUC (% of vehicle) (Table 20, i3 loop, conc 3.0 uM): 116.49 % of vehicle
- Max (% of vehicle) (Table 20, i3 loop, conc 3.0 uM): 114.49 % of vehicle
- Peak Test Compound (Table 20, i3 loop, conc 3.0 uM): 0.8 nM

Compound: CCCCCCCCCCCCCCCCC(NC(=O)CCCCCCCCCCCCC)C(=O)N[C@@H](CCSC)C(=O)NCC(=O)N[C@@H](Cc1ccc(O)cc1)C(=O)N[C@@H](CCC(N)=O)C(=O)N[C@@H](CCCCN)C(=O)N[C@@H](CCCCN)C(=O)N[C@@H](CC(C)C)C(=O)N[C@@H](CCCNC(=N)N)C(=O)N[C@@H](CO)C(=O)N[C@@H](CCSC)C(=O)N[C@H](C(=O)N[C@@H](CC(=O)O)C(=O)N[C@@H](CCCCN)C(=O)N[C@@H](Cc1ccc(O)cc1)C(=O)N[C@@H](CCCNC(=N)N)C(=O)N[C@H](C(N)=O)[C@@H](C)CC)[C@@H](C)O (stereo partly drawn) [Compound 48] (Myristoyl-[ξGly(nC16H33)]MGYQKKLRSMTDKYRI-NH2)
- activity at 1 µM [4]: 53%
- activity at 1 µM [5]: 53.5%

Compound: CCCCCCCCCCCCCCCC(=O)N[C@@H](CCSC)C(=O)NCC(=O)N[C@@H](Cc1ccc(O)cc1)C(=O)N[C@@H](CCC(N)=O)C(=O)N[C@@H](CCCCN)C(=O)N[C@@H](CCCCN)C(=O)N[C@@H](CC(C)C)C(=O)N[C@@H](CCCNC(=N)N)C(=O)N[C@@H](CO)C(=O)N[C@@H](CCSC)C(=O)N[C@H](C(=O)N[C@@H](CC(=O)O)C(=O)N[C@@H](CCCCN)C(=O)N[C@@H](Cc1ccc(O)cc1)C(=O)N[C@@H](CCCNC(=N)N)C(=O)N[C@H](C(N)=O)[C@@H](C)CC)[C@@H](C)O [Compound 49] (Palmitoyl-MGYQKKLRSMTDKYRI-NH2)
- activity at 1 µM [4]: 50.9%
- activity at 1 µM [5]: 62.7%
